According to paper PMC3297592, “Metabolism of Phosphatidylinositol 4-Kinase IIIα-Dependent PI4P Is Subverted by HCV and Is Targeted by a 4-Anilino Quinazoline with Antiviral Activity” (PLoS Pathogens, 2012):

How the values were obtained:
Test in all cases: ADP-Glo kinase assay
Type in all cases: biochemical
[1] = target: T1, PI4KIIIα-CD (catalytic domain of PI4KIIIα) (Homo sapiens, UniProt P42356)
T1 construct: gene PI4KA; catalytic domain from G873 to the natural C-terminus, N-terminal His6 tag (pFastBac HT-B) kept, Sf9 / baculovirus, Ni-Sepharose; primer adds start ATG GGG (MGMMQCVI...); ends ...NDIPY
T1 sequence (P42356 931-2102): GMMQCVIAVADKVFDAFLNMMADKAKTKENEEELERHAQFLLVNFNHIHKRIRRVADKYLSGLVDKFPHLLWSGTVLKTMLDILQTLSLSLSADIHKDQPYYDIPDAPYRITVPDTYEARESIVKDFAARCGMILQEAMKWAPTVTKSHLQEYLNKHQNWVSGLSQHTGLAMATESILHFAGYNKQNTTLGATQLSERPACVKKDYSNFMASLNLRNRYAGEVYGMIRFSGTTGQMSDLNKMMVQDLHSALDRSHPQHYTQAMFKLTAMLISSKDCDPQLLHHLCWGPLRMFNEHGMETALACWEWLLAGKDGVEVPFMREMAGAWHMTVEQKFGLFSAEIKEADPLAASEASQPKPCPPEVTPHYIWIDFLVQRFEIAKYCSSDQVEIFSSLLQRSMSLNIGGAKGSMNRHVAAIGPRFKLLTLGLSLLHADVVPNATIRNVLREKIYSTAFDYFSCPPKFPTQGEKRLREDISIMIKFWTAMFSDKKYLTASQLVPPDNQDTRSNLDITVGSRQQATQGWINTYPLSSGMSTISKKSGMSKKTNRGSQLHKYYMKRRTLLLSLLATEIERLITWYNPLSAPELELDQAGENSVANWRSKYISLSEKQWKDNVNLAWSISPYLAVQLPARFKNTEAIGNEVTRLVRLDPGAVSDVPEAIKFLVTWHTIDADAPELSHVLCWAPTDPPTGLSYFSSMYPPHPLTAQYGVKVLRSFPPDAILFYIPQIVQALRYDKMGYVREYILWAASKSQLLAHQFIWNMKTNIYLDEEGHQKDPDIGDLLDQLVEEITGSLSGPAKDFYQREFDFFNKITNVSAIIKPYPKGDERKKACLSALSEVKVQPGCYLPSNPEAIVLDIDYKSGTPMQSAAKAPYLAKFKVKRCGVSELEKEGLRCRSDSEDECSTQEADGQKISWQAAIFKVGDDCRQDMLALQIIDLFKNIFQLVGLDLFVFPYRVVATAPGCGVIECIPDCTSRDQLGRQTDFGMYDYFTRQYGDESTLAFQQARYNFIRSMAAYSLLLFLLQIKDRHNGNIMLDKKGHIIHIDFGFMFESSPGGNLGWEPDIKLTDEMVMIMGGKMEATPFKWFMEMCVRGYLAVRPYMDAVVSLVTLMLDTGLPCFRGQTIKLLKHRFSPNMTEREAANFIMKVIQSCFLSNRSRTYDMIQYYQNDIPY

PI3Kβ (p110β/p85α) = target: T2, PI3Kβ (p110β/p85α) (Homo sapiens, UniProt P42338)
T2 construct: gene PIK3CB; commercial purified p110β/p85α heterodimer (Millipore); with Phosphatidylinositol 3-kinase regulatory subunit alpha
T2 sequence (P42338 whole entry): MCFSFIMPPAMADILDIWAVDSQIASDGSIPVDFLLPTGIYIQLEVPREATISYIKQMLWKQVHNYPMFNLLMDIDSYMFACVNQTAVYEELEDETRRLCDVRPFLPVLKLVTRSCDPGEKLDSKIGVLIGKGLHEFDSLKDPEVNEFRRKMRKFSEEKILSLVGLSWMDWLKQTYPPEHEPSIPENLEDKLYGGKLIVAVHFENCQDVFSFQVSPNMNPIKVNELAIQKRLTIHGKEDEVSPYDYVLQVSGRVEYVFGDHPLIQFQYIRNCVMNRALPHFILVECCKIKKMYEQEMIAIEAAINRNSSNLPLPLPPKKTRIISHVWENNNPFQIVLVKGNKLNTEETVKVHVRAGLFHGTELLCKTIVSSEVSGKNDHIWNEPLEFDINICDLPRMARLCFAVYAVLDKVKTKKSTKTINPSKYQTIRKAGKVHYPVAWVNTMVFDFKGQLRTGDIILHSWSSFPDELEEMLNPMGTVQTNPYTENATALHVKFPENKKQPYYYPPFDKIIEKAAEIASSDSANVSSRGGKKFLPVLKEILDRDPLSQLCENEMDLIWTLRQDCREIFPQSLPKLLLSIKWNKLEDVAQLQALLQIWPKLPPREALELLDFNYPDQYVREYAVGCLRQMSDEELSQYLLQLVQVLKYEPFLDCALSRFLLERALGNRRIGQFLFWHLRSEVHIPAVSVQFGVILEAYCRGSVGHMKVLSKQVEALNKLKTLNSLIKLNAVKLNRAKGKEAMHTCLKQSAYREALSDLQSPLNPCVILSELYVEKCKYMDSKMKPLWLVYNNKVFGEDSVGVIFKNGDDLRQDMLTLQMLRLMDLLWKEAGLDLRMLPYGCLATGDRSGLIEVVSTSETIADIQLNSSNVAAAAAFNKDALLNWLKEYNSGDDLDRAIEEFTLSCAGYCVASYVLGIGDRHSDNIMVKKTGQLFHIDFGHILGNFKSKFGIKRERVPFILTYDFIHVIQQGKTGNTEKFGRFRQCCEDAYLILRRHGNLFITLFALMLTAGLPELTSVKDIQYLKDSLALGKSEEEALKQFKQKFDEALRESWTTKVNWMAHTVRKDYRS
T2 sequence (P27986 2-724 partner): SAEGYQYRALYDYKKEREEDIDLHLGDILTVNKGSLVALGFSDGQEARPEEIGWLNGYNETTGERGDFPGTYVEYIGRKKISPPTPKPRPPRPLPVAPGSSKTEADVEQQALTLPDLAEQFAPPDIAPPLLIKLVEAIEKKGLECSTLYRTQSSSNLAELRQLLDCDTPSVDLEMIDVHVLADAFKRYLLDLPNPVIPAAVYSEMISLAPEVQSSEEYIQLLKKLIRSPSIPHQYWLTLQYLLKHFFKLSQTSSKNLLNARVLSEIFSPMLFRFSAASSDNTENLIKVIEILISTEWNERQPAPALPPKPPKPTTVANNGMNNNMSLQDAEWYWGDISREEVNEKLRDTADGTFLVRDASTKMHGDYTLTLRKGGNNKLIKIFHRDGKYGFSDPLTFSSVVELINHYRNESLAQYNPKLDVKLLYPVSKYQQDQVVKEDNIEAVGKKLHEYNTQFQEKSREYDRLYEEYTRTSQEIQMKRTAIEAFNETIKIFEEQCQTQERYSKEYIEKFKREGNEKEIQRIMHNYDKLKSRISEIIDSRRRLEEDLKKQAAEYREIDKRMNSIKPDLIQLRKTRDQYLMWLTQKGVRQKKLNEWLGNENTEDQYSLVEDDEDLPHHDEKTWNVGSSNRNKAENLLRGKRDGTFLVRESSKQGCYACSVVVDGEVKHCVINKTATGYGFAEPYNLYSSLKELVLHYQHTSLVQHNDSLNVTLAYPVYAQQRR

PI3Kα (p110α/p85α) = target: T3, PI3Kα (p110α/p85α) (Homo sapiens, UniProt P42336)
T3 construct: gene PIK3CA; commercial purified p110α/p85α heterodimer (Millipore); with Phosphatidylinositol 3-kinase regulatory subunit alpha
T3 sequence (P42336 whole entry): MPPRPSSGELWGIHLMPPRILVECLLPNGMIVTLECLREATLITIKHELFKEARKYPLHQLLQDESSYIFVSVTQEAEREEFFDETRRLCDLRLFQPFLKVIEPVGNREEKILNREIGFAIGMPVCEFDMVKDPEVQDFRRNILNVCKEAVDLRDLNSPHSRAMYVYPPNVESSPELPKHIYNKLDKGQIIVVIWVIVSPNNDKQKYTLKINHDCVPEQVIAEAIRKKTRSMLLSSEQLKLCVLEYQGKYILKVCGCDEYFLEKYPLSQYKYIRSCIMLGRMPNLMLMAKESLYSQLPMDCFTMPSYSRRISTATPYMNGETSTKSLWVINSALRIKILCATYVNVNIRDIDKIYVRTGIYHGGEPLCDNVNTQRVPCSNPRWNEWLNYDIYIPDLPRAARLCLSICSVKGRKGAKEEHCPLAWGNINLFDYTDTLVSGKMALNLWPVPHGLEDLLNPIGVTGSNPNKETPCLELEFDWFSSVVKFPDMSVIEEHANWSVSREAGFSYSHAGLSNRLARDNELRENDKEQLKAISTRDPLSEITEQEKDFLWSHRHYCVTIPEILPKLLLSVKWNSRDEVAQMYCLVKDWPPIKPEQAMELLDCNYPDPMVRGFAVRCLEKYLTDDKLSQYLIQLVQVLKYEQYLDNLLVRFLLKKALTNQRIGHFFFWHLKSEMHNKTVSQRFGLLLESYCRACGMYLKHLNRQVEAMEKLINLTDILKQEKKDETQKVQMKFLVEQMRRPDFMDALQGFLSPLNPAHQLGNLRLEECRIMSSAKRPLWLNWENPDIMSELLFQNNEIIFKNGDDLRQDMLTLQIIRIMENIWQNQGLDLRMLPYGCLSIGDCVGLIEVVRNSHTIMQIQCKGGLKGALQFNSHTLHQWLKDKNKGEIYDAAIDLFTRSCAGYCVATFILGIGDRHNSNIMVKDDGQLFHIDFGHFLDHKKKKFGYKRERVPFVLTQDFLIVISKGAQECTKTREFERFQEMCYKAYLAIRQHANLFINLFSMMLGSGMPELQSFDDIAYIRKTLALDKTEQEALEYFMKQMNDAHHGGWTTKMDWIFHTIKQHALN
T3 sequence (P27986 2-724 partner): as the sequence (P27986 2-724 partner) above

OCc1ccc(-c2ccc3ncnc(Nc4ccc(N5CCOCC5)cc4)c3c2)o1 [AL-9]
IC50 [1]: 570 nM
inhibition at 10 µM (PI3Kβ (p110β/p85α)): 40%
IC50 (PI3Kα (p110α/p85α)): 1100 nM
